From patent US9695155B2, “Herbicidal substituted pyrimidinyloxy benzene compounds” (E. I. DU PONT DE NEMOURS AND COMPANY, priority 2013, dated 2017)

How the values were obtained:
large (Lg) crabgrass = experiment: Test C preemergence; format: in vivo, Digitaria sanguinalis; conditions: Digitaria sanguinalis, pre-emergence
Outline: (§1)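 Seeds were sown in loam–sand blend and sprayed preemergence, while plants at 1- to 4-leaf stage (2–18 cm) in peat-based medium received postemergence sprays; test chemicals were formulated in a non-phytotoxic solvent with surfactant. After 13–15 days in a greenhouse, injury was rated visually against controls, 0 (no effect) to 100 (complete control).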

ragweed [1] = experiment: Test A preemergence; format: in vivo, Ambrosia elatior; conditions: 0 to 100 scale where 0 is no effect and 100 is complete control
Outline: (§2)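 Pre- and postemergence greenhouse screen. Soil: loam + sand. Spray carrier: solvent mixture, non-phytotoxic, with surfactant. Post timing at 1–2 leaves, height 2–10 cm. Readout: visual injury on a 0–100 scale roughly 10 days after application, untreated plants as reference.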

giant foxtail = experiment: Test C preemergence; format: in vivo, Setaria faberii; conditions: Setaria faberi, pre-emergence
Outline: as §1

Italian ryegrass [2] = experiment: Test A postemergence; format: in vivo, Lolium multiflorum; conditions: 0 to 100 scale where 0 is no effect and 100 is complete control
Outline: as §2

johnsongrass = experiment: Test C preemergence; format: in vivo, Sorghum halepense; conditions: Sorghum halepense, pre-emergence
Outline: as §1

lambsquarters = experiment: Test C preemergence; format: in vivo, Chenopodium album; conditions: Chenopodium album, pre-emergence
Outline: as §1

yellow nutsedge = experiment: Test C preemergence; format: in vivo, Cyperus esculentus; conditions: Cyperus, pre-emergence
Outline: as §1

blackgrass [3] = experiment: Test A postemergence; format: in vivo, Alopecurus myosuroides; conditions: 0 to 100 scale where 0 is no effect and 100 is complete control
Outline: as §2

corn = experiment: Test C preemergence; format: in vivo, Zea mays; conditions: Zea mays, pre-emergence
Outline: as §1

ragweed [4] = experiment: Test C preemergence; format: in vivo, Ambrosia elatior; conditions: Ambrosia artemisiifolia, pre-emergence
Outline: as §1

blackgrass [5] = experiment: Test C preemergence; format: in vivo, Alopecurus myosuroides; conditions: Alopecurus myosuroides, pre-emergence
Outline: as §1

Italian ryegrass [6] = experiment: Test A preemergence; format: in vivo, Lolium multiflorum; conditions: 0 to 100 scale where 0 is no effect and 100 is complete control
Outline: as §2

oilseed rape = experiment: Test C preemergence; format: in vivo, Brassica napus; conditions: Brassica napus, pre-emergence
Outline: as §1

waterhemp = experiment: Test C preemergence; format: in vivo, Amaranthus rudis; conditions: Amaranthus tuberculatus, pre-emergence
Outline: as §1

galium [7] = experiment: Test C preemergence; format: in vivo, Galium aparine; conditions: Galium, pre-emergence
Outline: as §1

barnyardgrass = experiment: Test C preemergence; format: in vivo, Echinochloa crus-galli; conditions: Echinochloa crus-galli, pre-emergence
Outline: as §1

pigweed = experiment: Test C preemergence; format: in vivo, Amaranthus retroflexus; conditions: Amaranthus retroflexus, pre-emergence
Outline: as §1

galium [8] = experiment: Test A postemergence; format: in vivo, Galium aparine; conditions: 0 to 100 scale where 0 is no effect and 100 is complete control
Outline: as §2

For N#Cc1cccc(Oc2ncc(Cl)cn2)c1-n1cc(SC(F)(F)F)cn1 [Compound 134, 3-[(5-chloro-2-pyrimidinyl)oxy]-2-[4-(trifluoromethylthio)-1-pyrazolyl]benzonitrile], the pest or weed control at 16 g/ha (large (Lg) crabgrass; 16 g ai/ha, preemergence, scale 0 to 100 (0 no effect, 100 complete control), read-out: Crabgrass, Large plant response rating) was 60%, the pest or weed control at 62 g/ha (large (Lg) crabgrass; 62 g ai/ha, preemergence, scale 0 (no effect) to 100 (complete control), read-out: Crabgrass, Large plant response rating) was 98% and the pest or weed control at 125 g/ha (large (Lg) crabgrass; 125 g ai/ha, preemergence, scale 0 (no effect) to 100 (complete control), read-out: Crabgrass, Large plant response rating) was 100%. The pest or weed control at 31 g/ha (large (Lg) crabgrass; Preemergence, 31 g ai/ha, scale 0 to 100, 0 no effect, 100 complete control, read-out: Plant response rating, Crabgrass, Large) was 98%, the “Plant response rating, Ragweed” value (ragweed [1]; 125 g ai/ha) was 60 and the “Ragweed plant response rating” value (ragweed [1]; 500 g ai/ha) was 80. For the same molecule, the pest or weed control at 16 g/ha (giant foxtail; 16 g ai/ha, preemergence, scale 0 to 100 (0 no effect, 100 complete control), read-out: Foxtail, Giant plant response rating) was 10%, the pest or weed control at 62 g/ha (giant foxtail; 62 g ai/ha, preemergence, scale 0 (no effect) to 100 (complete control), read-out: Foxtail, Giant plant response rating) was 100% and the pest or weed control at 125 g/ha (giant foxtail; 125 g ai/ha, preemergence, scale 0 (no effect) to 100 (complete control), read-out: Foxtail, Giant plant response rating) was 100%. The pest or weed control at 31 g/ha (giant foxtail; Preemergence, 31 g ai/ha, scale 0 to 100, 0 no effect, 100 complete control, read-out: Plant response rating, Foxtail, Giant) was 65%, the “Ryegrass, Italian plant response rating” value (Italian ryegrass [2]; 125 g ai/ha) was 50 and the “Plant response rating, Ryegrass, Italian” value (Italian ryegrass [2]; 500 g ai/ha) was 100. It also gave a pest or weed control at 16 g/ha (johnsongrass; 16 g ai/ha, preemergence, scale 0 to 100 (0 no effect, 100 complete control), read-out: Johnsongrass plant response rating) of 20%, a pest or weed control at 62 g/ha (johnsongrass; 62 g ai/ha, preemergence, scale 0 (no effect) to 100 (complete control), read-out: Johnsongrass plant response rating) of 45% and a pest or weed control at 125 g/ha (johnsongrass; 125 g ai/ha, preemergence, scale 0 (no effect) to 100 (complete control), read-out: Johnsongrass plant response rating) of 85%. For the same molecule, the pest or weed control at 31 g/ha (johnsongrass; Preemergence, 31 g ai/ha, scale 0 to 100, 0 no effect, 100 complete control, read-out: Plant response rating, Johnsongrass) was 25%, the pest or weed control at 16 g/ha (lambsquarters; 16 g ai/ha, preemergence, scale 0 to 100 (0 no effect, 100 complete control), read-out: Lambsquarters plant response rating) was 60% and the pest or weed control at 62 g/ha (lambsquarters; 62 g ai/ha, preemergence, scale 0 (no effect) to 100 (complete control), read-out: Lambsquarters plant response rating) was 100%. The pest or weed control at 125 g/ha (lambsquarters; 125 g ai/ha, preemergence, scale 0 (no effect) to 100 (complete control), read-out: Lambsquarters plant response rating) was 100%, the pest or weed control at 31 g/ha (lambsquarters; Preemergence, 31 g ai/ha, scale 0 to 100, 0 no effect, 100 complete control, read-out: Plant response rating, Lambsquarters) was 100% and the pest or weed control at 16 g/ha (yellow nutsedge; 16 g ai/ha, preemergence, scale 0 to 100 (0 no effect, 100 complete control), read-out: Nutsedge, Yellow plant response rating) was 0%. The pest or weed control at 62 g/ha (yellow nutsedge; 62 g ai/ha, preemergence, scale 0 (no effect) to 100 (complete control), read-out: Nutsedge, Yellow plant response rating) was 0%, the pest or weed control at 125 g/ha (yellow nutsedge; 125 g ai/ha, preemergence, scale 0 (no effect) to 100 (complete control), read-out: Nutsedge, Yellow plant response rating) was 10% and the pest or weed control at 31 g/ha (yellow nutsedge; Preemergence, 31 g ai/ha, scale 0 to 100, 0 no effect, 100 complete control, read-out: Plant response rating, Nutsedge, Yellow) was 0%. For the same molecule, the “Blackgrass plant response rating” value (blackgrass [3]; 125 g ai/ha) was 30, the “Plant response rating, Blackgrass” value (blackgrass [3]; 500 g ai/ha) was 90 and the plant injury at 16 g/ha (corn; 16 g ai/ha, preemergence, scale 0 to 100 (0 no effect, 100 complete control), read-out: Corn plant response rating) was 0%. The plant injury at 62 g/ha (corn; 62 g ai/ha, preemergence, scale 0 (no effect) to 100 (complete control), read-out: Corn plant response rating) was 40%, the plant injury at 125 g/ha (corn; 125 g ai/ha, preemergence, scale 0 (no effect) to 100 (complete control), read-out: Corn plant response rating) was 40% and the Corn plant response rating (crop injury, 0 = no effect, 100 = complete kill) at 31 g/ha (corn; Preemergence, 31 g ai/ha, scale 0 to 100, 0 no effect, 100 complete control) was 30%. The pest or weed control at 16 g/ha (ragweed [4]; 16 g ai/ha, preemergence, scale 0 to 100 (0 no effect, 100 complete control), read-out: Ragweed plant response rating) was 0%, the pest or weed control at 62 g/ha (ragweed [4]; 62 g ai/ha, preemergence, scale 0 (no effect) to 100 (complete control), read-out: Ragweed plant response rating) was 55% and the pest or weed control at 125 g/ha (ragweed [4]; 125 g ai/ha, preemergence, scale 0 (no effect) to 100 (complete control), read-out: Ragweed plant response rating) was 50%. It also gave a pest or weed control at 31 g/ha (ragweed [4]; Preemergence, 31 g ai/ha, scale 0 to 100, 0 no effect, 100 complete control, read-out: Plant response rating, Ragweed) of 25%, a pest or weed control at 16 g/ha (blackgrass [5]; 16 g ai/ha, preemergence, scale 0 to 100 (0 no effect, 100 complete control), read-out: Blackgrass plant response rating) of 0% and a pest or weed control at 62 g/ha (blackgrass [5]; 62 g ai/ha, preemergence, scale 0 (no effect) to 100 (complete control), read-out: Blackgrass plant response rating) of 85%. For the same molecule, the pest or weed control at 125 g/ha (blackgrass [5]; 125 g ai/ha, preemergence, scale 0 (no effect) to 100 (complete control), read-out: Blackgrass plant response rating) was 98%, the pest or weed control at 31 g/ha (blackgrass [5]; Preemergence, 31 g ai/ha, scale 0 to 100, 0 no effect, 100 complete control, read-out: Plant response rating, Blackgrass) was 45% and the “Plant response rating, Ryegrass, Italian” value (Italian ryegrass [6]; 125 g ai/ha) was 20. The “Ryegrass, Italian plant response rating” value (Italian ryegrass [6]; 500 g ai/ha) was 40, the plant injury at 16 g/ha (oilseed rape; 16 g ai/ha, preemergence, scale 0 to 100 (0 no effect, 100 complete control), read-out: Oilseed Rape plant response rating) was 20% and the plant injury at 62 g/ha (oilseed rape; 62 g ai/ha, preemergence, scale 0 (no effect) to 100 (complete control), read-out: Oilseed Rape plant response rating) was 100%. The plant injury at 125 g/ha (oilseed rape; 125 g ai/ha, preemergence, scale 0 (no effect) to 100 (complete control), read-out: Oilseed Rape plant response rating) was 100%, the plant injury at 31 g/ha (oilseed rape; Preemergence, 31 g ai/ha, scale 0 to 100, 0 no effect, 100 complete control, read-out: Plant response rating, Oilseed Rape) was 45% and the pest or weed control at 16 g/ha (waterhemp; 16 g ai/ha, preemergence, scale 0 to 100 (0 no effect, 100 complete control), read-out: Waterhemp plant response rating) was 85%. It also gave a pest or weed control at 62 g/ha (waterhemp; 62 g ai/ha, preemergence, scale 0 (no effect) to 100 (complete control), read-out: Waterhemp plant response rating) of 100%, a pest or weed control at 125 g/ha (waterhemp; 125 g ai/ha, preemergence, scale 0 (no effect) to 100 (complete control), read-out: Waterhemp plant response rating) of 100% and a pest or weed control at 31 g/ha (waterhemp; Preemergence, 31 g ai/ha, scale 0 to 100, 0 no effect, 100 complete control, read-out: Plant response rating, Waterhemp) of 100%. The pest or weed control at 16 g/ha (galium [7]; 16 g ai/ha, preemergence, scale 0 to 100 (0 no effect, 100 complete control), read-out: Galium plant response rating) was 0%, the pest or weed control at 62 g/ha (galium [7]; 62 g ai/ha, preemergence, scale 0 (no effect) to 100 (complete control), read-out: Galium plant response rating) was 90% and the pest or weed control at 125 g/ha (galium [7]; 125 g ai/ha, preemergence, scale 0 (no effect) to 100 (complete control), read-out: Galium plant response rating) was 98%. The pest or weed control at 31 g/ha (galium [7]; Preemergence, 31 g ai/ha, scale 0 to 100, 0 no effect, 100 complete control, read-out: Plant response rating, Galium) was 0%, the pest or weed control at 16 g/ha (barnyardgrass; 16 g ai/ha, preemergence, scale 0 to 100 (0 no effect, 100 complete control), read-out: Barnyardgrass plant response rating) was 0% and the pest or weed control at 62 g/ha (barnyardgrass; 62 g ai/ha, preemergence, scale 0 (no effect) to 100 (complete control), read-out: Barnyardgrass plant response rating) was 60%. For the same molecule, the pest or weed control at 125 g/ha (barnyardgrass; 125 g ai/ha, preemergence, scale 0 (no effect) to 100 (complete control), read-out: Barnyardgrass plant response rating) was 85%, the pest or weed control at 31 g/ha (barnyardgrass; Preemergence, 31 g ai/ha, scale 0 to 100, 0 no effect, 100 complete control, read-out: Plant response rating, Barnyardgrass) was 15% and the pest or weed control at 16 g/ha (pigweed; 16 g ai/ha, preemergence, scale 0 to 100 (0 no effect, 100 complete control), read-out: Pigweed plant response rating) was 100%. It also gave a pest or weed control at 62 g/ha (pigweed; 62 g ai/ha, preemergence, scale 0 (no effect) to 100 (complete control), read-out: Pigweed plant response rating) of 100%, a pest or weed control at 125 g/ha (pigweed; 125 g ai/ha, preemergence, scale 0 (no effect) to 100 (complete control), read-out: Pigweed plant response rating) of 100% and a pest or weed control at 31 g/ha (pigweed; Preemergence, 31 g ai/ha, scale 0 to 100, 0 no effect, 100 complete control, read-out: Plant response rating, Pigweed) of 100%. The “Galium plant response rating” value (galium [8]; 125 g ai/ha) was 100 and the “Plant response rating, Galium” value (galium [8]; 500 g ai/ha) was 100.
